Test results published in patent publication US20170211073A1, “ANTISENSE ANTINEOPLASTIC AGENT” (priority 2014, published 2017).
[BNA] = bridged nucleic acid nucleotide (BNA), bridge type not specified for this compound; d = 2'-deoxy (DNA)

Legend:
[1] = test system: human pancreatic cancer SUIT2 cell strain, resistant strain; test: Gemcitabine sensitivity of gemcitabine-resistant SUIT2 strain; type: cell-based; details: SUIT-2
Experimental: (§1) A human pancreatic cancer SUIT2 cell strain was prepared by culturing pancreatic cancer cells resistant to the anticancer agent, gemcitabine, for a long period of time in a medium containing gemcitabine at a low concentration (IC50 value, 100 nM for the resistant strain vs. 5 nM for the parent strain). Subcutaneous tumors were prepared in the same manner as that of Example 10, and 200 μg/200 μL of YB-1 ASO AmNA or control antisense was administered into the blood according to the same protocol (once every two weeks, total 2 times).

[2] = test system: human pancreatic cancer SUIT2 cell strain, parent strain; test: Gemcitabine sensitivity of SUIT2 parent strain; type: cell-based; details: SUIT-2
Experimental: as §1

[3] = General blood and biochemical examinations, mice with HCT116 sc tumor; details: 10 mg/kg BW i.v. once a week for three weeks, blood one week after final treatment
Experimental: (§5) Subcutaneous tumor models were created by subcutaneously transplanting gemcitabine-resistant pancreatic cancer SUIT2-GR cells and large intestine cancer HCT116 cells to the thighs of nude mice. After tumors having a volume of 50 mm^3 were formed, 10 mg/kg BW of #10AmNA YB-1 antisense was administered from the caudal veins once a week over three weeks. The tumor diameters were measured over time.

[4] = General blood and biochemical examinations, mice with Suit2-GR sc tumor; details: Suit2-GR sc Tumor; 10 mg/kg BW i.v. once a week for three weeks; blood one week after final treatment
Experimental: as §5

HUVEC = test: Cell cycle analysis by PI flow cytometry, HUVEC; type: cell-based; details: 5 nM, 72 hours
Experimental: (§2) In order to elucidate the mechanism of the pancreatic cancer cell and endothelial cell proliferation inhibitory effect observed in Example 2, YB-1 ASO BNA (TCTcctgcaccCTGg, SEQ ID NO: 2, the parts of the capital letters in the sequence correspond to BNAs, the same shall apply to the following examples) was introduced at a concentration of 5 nM into the endothelial cells (1×10^5/well) under the same conditions as mentioned above. After 72 hours from the introduction, the cells were incubated with PI (1 μg/ml) at 37° C. for 30 minutes, and then cell cycle analysis was performed by using a flow cytometer (FACS CantoII).

HPAEC cells = test: Cell cycle analysis by PI flow cytometry, HPAEC; type: cell-based; details: 5 nM, 72 hours
Experimental: as §2

[5] = test system: vascular endothelial HUVEC cells; test: Annexin V-FITC apoptosis observation; type: cell-based
[6] = Safety of administration of YB-1 ASO BNA into blood, blood biochemical examinations
Experimental: YB-1 ASO BNA (indicated as “ASO-YBX1” in FIG. 7) at a concentration of 100 μg/200 μL or 200 μg/200 μL was administered once into the blood of nude mice from the caudal veins. After 48 hours, blood was collected, and examined by blood biochemical examinations for ALT, T-Bil, BUN, and creatinin in order to evaluate the liver and kidney functions.

YB-1 [7] = test: Screening of antisense oligo-nucleic acids by YB-1 expression-inhibitory ability in cancer cells (Lipofectamine RNAiMax); type: cell-based, human
pancreatic cancer cells = test: Proliferation by MTT assay, pancreatic cancer cells; type: cell-based; details: final concentration 50 nM, vs control antisense oligo-nucleic acid
Experimental: (§3) Then, pancreatic cancer and vascular endothelial cell proliferation-suppressing effects of ASO#10 (also referred to as “YB-1 ASO”, TCTcctgcaccCTGg, SEQ ID NO: 2) were examined. The cells were inoculated into wells of a 96-well plate at a density of 60% confluent, ASO#10 was introduced into the pancreatic cancer cells at a final concentration of 50 nM, and endothelial cells at a final concentration of 5 nM on the next day by using the gene transduction reagent Lipofectamine RNAiMax, and then the proliferation ability was periodically measured by the MTT assay method. […] In addition, it was also confirmed that gastric cancer and breast cancer are also knocked down by ASO#10.

[8] = test system: vascular endothelial cells; test: Proliferation by MTT assay, endothelial cells; type: cell-based; details: final concentration 5 nM, vs control antisense oligo-nucleic acid
Experimental: as §3

CDK1 and Cyclin B1 = test: Protein expression of CDK1 and Cyclin B1 in HUVEC and HPAEC cells; type: cell-based; details: vs control antisense oligonucleotide
[9] = test system: MiaPaCa-luc pancreatic cancer cells; test: Local administration into MiaPaCa-luc subcutaneous tumors, IVIS imaging; type: in vivo, nude mice; details: 10 μM with atelocollagen 1:1, local, once a week, total twice; vs control antisense oligo BNA
Experimental: The MiaPaCa-luc pancreatic cancer cells stably expressing luciferase were subcutaneously transplanted into the thighs of nude mice to prepare subcutaneous tumors in a size of 6 to 7 mm. A mixture of YB-1 ASO BNA (final concentration, 10 μM) and atelocollagen implant at a volume ration of 1:1 was locally administered into the tumors (once a week, total twice), and the tumor volume (luciferase activity) was evaluated over time by IVIS imaging.

[10] = test system: SUIT2 pancreatic cancer cells; test: Administration of YB-1 ASO BNA into blood, SUIT2 subcutaneous tumor; type: in vivo, nude mice; details: 200 μg/200 μL caudal vein, once a week, total 3 times
Excerpt: (§4) The SUIT2 pancreatic cancer cells or HCT116 large intestine cancer cells were subcutaneously transplanted into the thighs of nude mice to prepare subcutaneous tumors in a size of 6 to 7 mm. […] YB-1 ASO BNA suppressed proliferation of the tumors to a size of ¼ to ⅕ of those observed with the control antisense BNA (FIG. 5).

[11] = test system: HCT116 large intestine cancer cells; test: Administration of YB-1 ASO BNA into blood, HCT116 subcutaneous tumor; type: in vivo, nude mice; details: 200 μg/200 μL caudal vein, once a week, total 3 times
Excerpt: as §4

YB-1 [12] = test: YB-1 expression in tumor, liver, kidney after administration into blood, real-time RT-PCR; type: in vivo, nude mice; details: HCT116 model, 200 μg/200 μL caudal vein, once a week, total 2 times, 48 hours after final administration
Experimental: After 48 hours from the final administration, subcutaneous tumors, livers, and kidneys were extracted, RNAs were extracted, and YB-1 expression was analyzed by real-time RT-PCR.

YB-1 and CD31 = test: Immunostaining of YB-1 and CD31 in frozen tumor sections; type: in vivo, nude mice; details: HCT116 model; vs control antisense BNA

Compound: Nc1ccn([C@@H]2O[C@H](CO)[C@@H](O)C2(F)F)c(=O)n1 [gemcitabine]
- IC50 [1]: 100 nM
- IC50 [2]: 5 nM

Compound: CATttcgaagtACTc (antisense CATTTCGAAGTACTC; AmNA-modified units marked by uppercase, key not given here) [Ctrl]
- ALT [3]: 26 ± 3 IU/L
- AST [3]: 80 ± 10 IU/L
- BUN [3]: 21.2 ± 2.0 mg/dL
- CRE [3]: 0.07 ± 0.03 mg/dL
- HCT [3]: 35.7 ± 2.7%
- HGB [3]: 13.1 ± 0.3 g/dL
- PLT [3]: 136.2 ± 10.8 ×10^4/μl
- RBC [3]: 715 ± 55 ×10^4/μl
- T-BIL [3]: 0.06 ± 0.02 mg/dL
- WBC [3]: 48 ± 8 ×10^2/μl
- ALT [4]: 45 ± 19 IU/L
- AST [4]: 170 ± 183 IU/L
- BUN [4]: 27.9 ± 5.4 mg/dL
- CRE [4]: 0.10 ± 0.03 mg/dL
- HCT [4]: 38.5 ± 2.1%
- HGB [4]: 12.2 ± 0.6 g/dL
- PLT [4]: 100.5 ± 33.3 ×10^4/μl
- RBC [4]: 779 ± 39 ×10^4/μl
- T-BIL [4]: 0.03 ± 0.01 mg/dL
- WBC [4]: 29 ± 12 ×10^2/μl

Compound: CATttcgaagtACTc (antisense CATTTCGAAGTACTC; sugars from the 5' end [BNA]3 d8 [BNA]3 d1, backbone and methylation of C not given here) [control antisense oligo-BNA, reference compound]
- G2/M fraction (HUVEC): 22.1%
- subG1 fractionation (HUVEC): 2.0%
- G2/M fraction (HPAEC cells): 28.5%
- subG1 fractionation (HPAEC cells): 1.3%
- Annexin V-positive cells [5]: hardly observed
- ALT, T-Bil, BUN, creatinin (liver and kidney functions) ([6]; 100 μg/200 μL or 200 μg/200 μL once, caudal vein, 48 hours): any functional abnormality was not observed
- liver function markers AST and T-Bil ([6]; repeatedly administered 3 times): did not show any functional abnormality

Compound: TCTcctgcaccCTGg (TCTCCTGCACCCTGG; chemistry not fully specified) [ASO#10]
- YB-1 knockdown in gastric cancer and breast cancer (YB-1 [7]): knocked down
- pancreatic cancer cell proliferation inhibitory effect (pancreatic cancer cells): Significantly higher
- endothelial cell proliferation inhibitory effect [8]: Significantly higher
- G2/M fraction (HUVEC): 14.5%
- subG1 fractionation (HUVEC): 17.7%
- G2/M fraction (HPAEC cells): 14.0%
- subG1 fractionation (HPAEC cells): 18.7%
- Annexin V-positive cells [5]: increase in Annexin V-positive cells
- expression levels of CDK1 and Cyclin B1 (CDK1 and Cyclin B1): clearly suppressed
- tumor volume (luciferase activity) [9]: significant suppression
- tumor size as fraction of that with control antisense BNA [10]: ¼ to ⅕
- tumor size as fraction of that with control antisense BNA [11]: ¼ to ⅕
- YB-1 expression in the tumors, livers, and kidneys as fraction of control antisense BNA (YB-1 [12]; listed as YB-1 ASO BNA): about ⅓
- YB-1 expression in the tumors, livers, and kidneys as fraction of control antisense BNA (YB-1 [12]; listed as YB-1 antisense oligo BNA): suppresses expression of YB-1
- expression of YB-1 and CD31 in tumor tissues (immunostaining) (YB-1 and CD31): reduced
